Laboratory results reported in ChEMBL document CHEMBL4680158, “C6-O-alkylated 7-deazainosine nucleoside analogues: Discovery of potent and selective anti-sleeping sickness agents” (Eur J Med Chem, 2020).
pEC50, pKi: −log10 of the molar value.

Key:
[1] = test system: Trypanosoma brucei brucei; experiment: Antitrypanosomal activity against Trypanosoma brucei brucei assessed as reduction in parasite growth incubated for 3 days by resazurin dye based fluorescence assay; format: functional, organism-based; conditions: 72 h
[2] = test system: Trypanosoma brucei rhodesiense; experiment: Antitrypanosomal activity against Trypanosoma brucei rhodesiense assessed as reduction in parasite growth incubated for 3 days by resazurin dye based fluorescence assay; format: functional, organism-based; conditions: 72 h
[3] = test system: MRC5; experiment: Cytotoxicity against human MRC5 cells assessed as reduction in cell viability incubated for 3 days by resazurin dye based fluorescence assay; conditions: MRC5, 72 h
[4] = Selectivity index, ratio of EC50 for cytotoxicity against human MRC5 cells to EC50 for antitrypanosomal activity against Trypanosoma brucei brucei; format: toxicity, cell-based; conditions: read-out: Ratio EC50
[5] = Selectivity index, ratio of EC50 for cytotoxicity against human MRC5 cells to EC50 for antitrypanosomal activity against Trypanosoma brucei rhodesiense; format: toxicity, cell-based; conditions: read-out: Ratio EC50
[6] = test system: Trypanosoma brucei brucei; experiment: Antitrypanosomal activity against Trypanosoma brucei brucei Lister 427 blood stream forms assessed as reduction in parasite viability incubated for 48 hrs by resazurin dye based fluorescence assay; format: functional, organism-based; conditions: Lister 427, 48 h
[7] = test system: Trypanosoma brucei; experiment: Antitrypanosomal activity against drug resistant Trypanosoma brucei harboring TbAT1 deficient assessed as reduction in parasite viability incubated for 48 hrs by resazurin dye based fluorescence assay; format: functional, organism-based
[8] = Resistance factor, ratio of EC50 for antitrypanosomal activity against drug resistant Trypanosoma brucei harboring TbAT1 deficient to antitrypanosomal activity against Trypanosoma brucei brucei Lister 427 blood stream form; format: functional
[9] = test system: Trypanosoma brucei; experiment: Antitrypanosomal activity against drug resistant Trypanosoma brucei B48 assessed as reduction in parasite viability incubated for 48 hrs by resazurin dye based fluorescence assay; format: functional, organism-based; conditions: B48, 48 h
[10] = Resistance factor, ratio of EC50 for antitrypanosomal activity against drug resistant Trypanosoma brucei B48 to antitrypanosomal activity against Trypanosoma brucei brucei Lister 427 blood stream form; format: functional
[11] = test system: Trypanosoma brucei; experiment: Antitrypanosomal activity against drug resistant Trypanosoma brucei ISMR1 assessed as reduction in parasite viability incubated for 48 hrs by resazurin dye based fluorescence assay; format: functional, organism-based; conditions: ISMR1, 48 h
[12] = Resistance factor, ratio of EC50 for antitrypanosomal activity against drug resistant Trypanosoma brucei ISMR1 to antitrypanosomal activity against Trypanosoma brucei brucei Lister 427 blood stream form; format: functional
[13] = Inhibition of Trypanosoma brucei P1 transporter assessed as reduction in [3H]-adenosine uptake measured after 60 sec by scintillation counting method
[14] = Inhibition of Trypanosoma brucei P2 transporter assessed as reduction in [3H]-adenosine uptake measured after 60 sec by scintillation counting method

Structure (SMILES) | pEC50 [1] | pEC50 [2] | pEC50 [3] | selectivity ratio [4] | selectivity ratio [5] | pEC50 [6] | pEC50 [7] | Ratio EC50 [8] | pEC50 [9] | Ratio EC50 [10] | pEC50 [11] | Ratio EC50 [12] | pKi [13] | pKi [14]
O=c1[nH]cnc2c1ncn2[C@@H]1O[C@H](CO)C[C@H]1O | 5.96 | 5.17 | < 4.19 | – | – | – | – | – | – | – | – | – | – | –
OC[C@H]1O[C@@H](n2cc(Cl)c3c(OCCOc4ccccc4)ncnc32)[C@H](O)[C@@H]1O | 6.89 | 6.80 | 4.36 | 329 | 263 | – | – | – | – | – | – | – | – | –
Nc1nc(Cl)c2ccn([C@@H]3O[C@H](CO)[C@@H](O)[C@H]3O)c2n1 | 6.31 | 6.74 | < 4.19 | > 131 | > 347 | – | – | – | – | – | – | – | – | –
COc1ncnc2c1c(Cl)cn2[C@@H]1O[C@H](CO)[C@@H](O)[C@H]1O | 6.80 | 7.44 | ≤ 4.49 | > 200 | > 888 | 7.00 | 7.24 | 0.57 | 7.24 | 0.57 | 7.08 | 0.84 | 4.45 | 3.83
OC[C@H]1O[C@@H](n2cc(Cl)c3c(OCCc4ccccc4)ncnc32)[C@H](O)[C@@H]1O | 7.02 | 7.52 | 6.51 | 3.3 | 10.3 | – | – | – | – | – | – | – | – | –
O=c1[nH]cnc2c1c(Cl)cn2[C@@H]1O[C@H](CO)[C@@H](O)[C@H]1O | 4.97 | 4.60 | < 4.19 | > 6 | > 2.5 | – | – | – | – | – | – | – | – | –
CC(C)COc1ncnc2c1c(Cl)cn2[C@@H]1O[C@H](CO)[C@@H](O)[C@H]1O | 7.15 | 7.52 | 4.31 | 694 | 1670 | – | – | – | – | – | – | – | – | –
CC(C)Oc1ncnc2c1c(Cl)cn2[C@@H]1O[C@H](CO)[C@@H](O)[C@H]1O | 7.05 | 7.00 | < 4.19 | > 711 | > 640 | 6.74 | 6.70 | 1.08 | 6.73 | 1.02 | 6.57 | 1.47 | 3.55 | 3.61
Cc1nc2c(ccn2[C@@H]2O[C@H](CO)[C@@H](O)[C@H]2O)c(=O)[nH]1 | < 4.19 | 5.33 | < 4.19 | – | > 13 | – | – | – | – | – | – | – | – | –
COc1ncnc2c1c(Br)cn2[C@@H]1O[C@H](CO)[C@@H](O)[C@H]1O | 6.72 | 7.44 | < 4.19 | > 336 | > 1780 | 6.93 | 7.08 | 0.71 | 7.05 | 0.77 | 7.00 | 0.85 | – | –
CC[n+]1c(-c2ccccc2)c2cc(N/N=N/c3cccc(C(=N)N)c3)ccc2c2ccc(N)cc21 | – | – | – | – | – | – | – | 1.2 | – | 0.85 | – | 4.8 | – | –
COc1ncnc2c1c(I)cn2[C@@H]1O[C@H](CO)[C@@H](O)[C@H]1O | 6.66 | 7.28 | 4.42 | 168 | 708 | – | – | – | – | – | – | – | – | –
Nc1nc2c(c(Br)cn2[C@@H]2O[C@H](CO)[C@@H](O)[C@H]2O)c(=O)[nH]1 | 5.70 | 6.31 | < 4.19 | > 31 | > 130 | – | – | – | – | – | – | – | – | –

Second part, led by results:

pEC50 [1] | pEC50 [2] | Structure (SMILES) | pEC50 [3] | selectivity ratio [4] | selectivity ratio [5] | pEC50 [6] | pEC50 [7] | Ratio EC50 [8] | pEC50 [9] | Ratio EC50 [10] | pEC50 [11] | Ratio EC50 [12] | pKi [13] | pKi [14]
7.09 | 7.12 | CCCOc1ncnc2c1c(Cl)cn2[C@@H]1O[C@H](CO)[C@@H](O)[C@H]1O | 5.55 | 34 | 37 | – | – | – | – | – | – | – | – | –
7.55 | 7.48 | Cc1ccc(C(=O)Nc2ccc(S(=O)(=O)O)c3cc(S(=O)(=O)O)cc(S(=O)(=O)O)c23)cc1NC(=O)c1cccc(NC(=O)Nc2cccc(C(=O)Nc3cc(C(=O)Nc4ccc(S(=O)(=O)O)c5cc(S(=O)(=O)O)cc(S(=O)(=O)O)c45)ccc3C)c2)c1 [SURAMIN] | – | – | – | – | – | – | – | – | – | – | – | –
6.77 | 6.66 | COCCOc1ncnc2c1c(Cl)cn2[C@@H]1O[C@H](CO)[C@@H](O)[C@H]1O | 5.38 | 25 | 18.8 | – | – | – | – | – | – | – | – | –
7.24 | 7.54 | CC(C)CCOc1ncnc2c1c(Cl)cn2[C@@H]1O[C@H](CO)[C@@H](O)[C@H]1O | < 4.19 | > 1100 | > 2200 | – | – | – | – | – | – | – | – | –
7.06 | 7.49 | CCCCCOc1ncnc2c1c(Cl)cn2[C@@H]1O[C@H](CO)[C@@H](O)[C@H]1O | 7.00 | 1.1 | 3.2 | – | – | – | – | – | – | – | – | –
4.24 | 4.62 | O=c1[nH]cnc2c1c(I)cn2[C@@H]1O[C@H](CO)[C@@H](O)[C@H]1O | < 4.19 | > 1.1 | > 2.7 | – | – | – | – | – | – | – | – | –
6.89 | 7.11 | COc1nc(N)nc2c1c(Br)cn2[C@@H]1O[C@H](CO)[C@@H](O)[C@H]1O | 5.49 | 24 | 42 | – | – | – | – | – | – | – | – | –
